Reference: ChEMBL document CHEMBL6114943, “Engineered Cyclotide Blocks Neuronal Excitotoxicity” (J Med Chem, 2025)
pKd: −log10 of the molar value. Each block holds one compound with its values, some of them ahead of it. The source made the active and inactive calls. The calls are words filed in the database; no cut-off is given here. Where a SMILES comes first, the peptide text is derived from it. Bridges are numbered along the chain shown (N, C = ends).

Legend:
[1] = Stability in C57BL/6 mouse plasma assessed as parent compound remaining at 100 uM measured after 5 hrs by HPLC analysis relative to control; format: ADME, cell-free; conditions: read-out: Stability
[2] = Stability in C57BL/6 mouse plasma assessed as drug degradation at 100 uM measured < 15 mins in presence of alteplase by HPLC analysis; format: ADME, cell-free; conditions: 0.25 h
[3] = Stability in C57BL/6 mouse plasma assessed as half life at 100 uM incubated for 300 min by HPLC analysis; format: ADME, cell-free
[4] = Stability in C57BL/6 mouse plasma assessed as drug degradation at 100 uM measured after 5 hrs in presence of alteplase by HPLC analysis; format: ADME, cell-free
[5] = Stability in C57BL/6 mouse plasma assessed as drug degradation by measuring parent compound remaining at 100 uM measured after 5 hrs in presence of alteplase by HPLC analysis relative to control; format: ADME, cell-free; conditions: read-out: Stability
[6] = Stability in C57BL/6 mouse plasma assessed as drug degradation by measuring parent compound remaining at 100 uM measured after 5 hrs by HPLC analysis relative to control; format: ADME, cell-free; conditions: read-out: Stability
[7] = Stability in C57BL/6 mouse plasma assessed as parent compound remaining at 100 uM measured after 24 hrs by HPLC analysis; format: ADME, cell-free; conditions: read-out: Stability
[8] = Stability in C57BL/6 mouse plasma assessed as parent compound remaining at 100 uM measured after 24 hrs in presence of alteplase by HPLC analysis relative to control; format: ADME, cell-free; conditions: read-out: Stability
Neuron [9] = assay: Cytotoxicity against mouse primary neuron upto 1 uM incubated for 24 hrs; format: toxicity, cell-based
Neuron [10] = assay: Neuroprotective activity against NMDA-induced cell death in mouse primary neuron assessed as reduction in cell viability preincubated with compound for 1 hrs followed by NMDA addition and measured after 1 hrs by PI staining based analysis relative to control; format: functional; conditions: time 2.0 hrs
Mus musculus [11] = assay: Neuroprotective activity against pilocarpine-induced seizure in C57BL6 mouse assessed as survival rate at 3 nmol/g, iv pretreated with compound for 1 hrs followed by pilocarpine induction and measured after 2 hrs relative to control; format: functional; conditions: time 3 hrs
[12] = Drug uptake in mouse Primary neuron at 100 nM measured at 60 mins by inverted confocal microscopic analysis; format: ADME, cell-based; conditions: 1 h, 0.1 µM
[13] = Drug uptake in mouse Primary neuron at 500 nM incubated for 60 mins by inverted confocal microscopic analysis relative to control; format: ADME, cell-based; conditions: 1 h, 0.5 µM
[14] = Drug uptake in mouse Primary neuron at 100 nM incubated for 60 mins by inverted confocal microscopic analysis relative to control; format: ADME, cell-based; conditions: 1 h, 0.1 µM
Neuron [15] = assay: Neuroprotective activity against NMDA-induced cell death in mouse primary neuron assessed as cell viability preincubated with compound for 1 hrs followed by NMDA addition and measured after 1 hrs by PI staining based analysis relative to control; format: functional; conditions: time 2 hrs
Neuron [16] = assay: Neuroprotective activity against Amyloid beta-induced cell death in mouse primary neuron assessed as cell viability preincubated with compound for 1 hrs followed by Amyloid beta addition and measured after 1 hrs by PI staining based analysis relative to control; format: functional; conditions: time 2 hrs
[17] = Toxicity in C57BL/6 mouse assessed as histological changes in spleen at 3 nmol/g, iv administered 3 consecutive days by H and E staining based analysis; format: organism-based; conditions: in vivo
Disks large homolog 4 = Disks large homolog 4 (Homo sapiens, UniProt P78352); assay: Binding affinity to PSD-95 (unknown origin) assessed as binding constant (Kd) by MST analysis
[18] = Toxicity in C57BL/6 mouse assessed as histological changes in kidney at 3 nmol/g, iv administered 3 consecutive days by H and E staining based analysis; format: organism-based; conditions: in vivo
[19] = Toxicity in C57BL/6 mouse assessed as histological changes in lung at 3 nmol/g, iv administered 3 consecutive days by H and E staining based analysis; format: organism-based; conditions: in vivo
[20] = Toxicity in C57BL/6 mouse assessed as histological changes in liver at 3 nmol/g, iv administered 3 consecutive days by H and E staining based analysis; format: organism-based; conditions: in vivo
Neuron [21] = assay: Neuroprotective activity against Amyloid beta-induced cell death in mouse primary neuron assessed as cell viability at 100 nM preincubated with compound for 1 hrs followed by Amyloid beta addition and measured after 1 hrs by PI staining based analysis; format: functional; conditions: time 2.0 hrs
Mus musculus [22] = assay: Neuroprotective activity against pilocarpine-induced seizure in C57BL6 mouse assessed as survival rate at 30 nmol/g, po pretreated with compound for 1 hrs followed by pilocarpine induction and measured after 2 hrs relative to control; format: functional; conditions: time 3 hrs
Neuron [23] = assay: Neuroprotective activity against NMDA-induced cell death in mouse primary neuron assessed as reduction in cell viability at 100 nM preincubated with compound for 1 hrs followed by NMDA addition and measured after 1 hrs by PI staining based analysis (reference value: 60.01 +/- 4%); format: functional; conditions: time 2 hrs

Chain of Disks large homolog 4 (P78352 whole entry): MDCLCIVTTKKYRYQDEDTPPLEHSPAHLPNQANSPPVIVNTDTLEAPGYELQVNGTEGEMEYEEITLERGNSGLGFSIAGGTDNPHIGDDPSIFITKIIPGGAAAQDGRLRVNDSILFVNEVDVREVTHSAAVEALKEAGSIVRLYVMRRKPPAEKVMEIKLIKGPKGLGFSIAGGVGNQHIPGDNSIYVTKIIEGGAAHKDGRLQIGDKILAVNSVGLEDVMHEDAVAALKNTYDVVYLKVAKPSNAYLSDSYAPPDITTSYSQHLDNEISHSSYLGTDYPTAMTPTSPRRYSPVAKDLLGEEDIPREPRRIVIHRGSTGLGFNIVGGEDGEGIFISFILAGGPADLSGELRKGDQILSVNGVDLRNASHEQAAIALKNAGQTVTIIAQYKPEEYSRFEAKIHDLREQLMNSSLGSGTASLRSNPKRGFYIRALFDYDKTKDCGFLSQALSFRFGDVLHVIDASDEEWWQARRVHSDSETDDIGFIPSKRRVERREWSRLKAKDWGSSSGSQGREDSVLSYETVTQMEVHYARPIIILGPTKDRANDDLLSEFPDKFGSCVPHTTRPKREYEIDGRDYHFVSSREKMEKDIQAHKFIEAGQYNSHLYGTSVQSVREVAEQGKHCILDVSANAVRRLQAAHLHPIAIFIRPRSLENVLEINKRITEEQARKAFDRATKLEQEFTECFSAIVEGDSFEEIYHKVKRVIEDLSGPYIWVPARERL

SMILES: CC[C@H](C)[C@@H]1NC(=O)[C@H](CO)NC(=O)[C@H](CO)NC(=O)[C@H](CC(C)C)NC(=O)[C@H](CCCCN)NC(=O)[C@@H]2CSSC[C@@H]3NC(=O)[C@H](CC(=O)O)NC(=O)[C@H](CO)NC(=O)[C@H](CC(=O)O)NC(=O)[C@H](CCCNC(=N)N)NC(=O)[C@H](CCCNC(=N)N)NC(=O)[C@@H]4CSSC[C@H](NC(=O)[C@H]([C@@H](C)CC)NC(=O)[C@H](CSSC[C@H](NC(=O)[C@H](C)NC(=O)[C@H](CC(=O)O)NC(=O)[C@H](C)NC(=O)[C@H](CCC(=O)O)NC1=O)C(=O)N1CCC[C@H]1C(=O)N[C@@H](CCCNC(=N)N)C(=O)N[C@@H]([C@@H](C)CC)C(=O)N[C@@H](CC(C)C)C(=O)N[C@@H](CCCNC(=N)N)C(=O)N[C@@H](CCCNC(=N)N)C(=O)N[C@@H](CCCNC(=N)N)C(=O)N[C@@H](CCCNC(=N)N)C(=O)N4)NC(=O)[C@H](C)NC(=O)CNC(=O)[C@@H]1CCCN1C3=O)C(=O)N[C@@H](CCCNC(=N)N)C(=O)NCC(=O)N[C@@H](CC(N)=O)C(=O)NCC(=O)N[C@@H](Cc1ccc(O)cc1)C(=O)N2 (cyclo(ACICRGNGYCKLSSIEADACPRILRRRRCRRDSDCPG); disulfide 2-20, 4-29, 10-35)
Activity (Neuron [9]): Non-toxic | Activity (Neuron [10]): inactive | Survival (Mus musculus [11]): 30%

SMILES: CC[C@H](C)[C@@H]1NC(=O)[C@@H]2CSSC[C@@H]3NC(=O)[C@H](C(C)C)NC(=O)[C@H](CC(=O)O)NC(=O)[C@H](CO)NC(=O)[C@H](CCC(=O)O)NC(=O)[C@H]([C@@H](C)CC)NC(=O)[C@H](CO)NC(=O)[C@H](CO)NC(=O)[C@H](CC(C)C)NC(=O)[C@H](CCCCN)NC(=O)[C@@H]4CSSC[C@H](NC(=O)[C@H](CC(=O)O)NC(=O)[C@H](CO)NC(=O)[C@H](CC(=O)O)NC(=O)[C@H](CCCNC(=N)N)NC(=O)[C@H](CCCNC(=N)N)NC(=O)[C@H](CSSC[C@H](NC1=O)C(=O)N[C@@H](CCCNC(=N)N)C(=O)NCC(=O)N[C@@H](CC(N)=O)C(=O)NCC(=O)N[C@@H](Cc1ccc(O)cc1)C(=O)N4)NC(=O)[C@H](CCCCN)NC(=O)[C@H](CCCCN)NC(=O)[C@H](CC(C)C)NC(=O)[C@H]([C@@H](C)CC)NC(=O)[C@H](CCCCN)NC(=O)[C@@H]1CCCN1C3=O)C(=O)N1CCC[C@H]1C(=O)NCC(=O)N[C@@H](C)C(=O)N2 (cyclo(ACICRGNGYCKLSSIESDVCPKILKKCRRDSDCPG); disulfide 2-20, 4-27, 10-33) [listing 2 of 2 here]
Activity (Neuron [15]): 31.8% | Activity (Neuron [16]): 32.6%

SMILES: CC[C@H](C)[C@H](NC(=O)[C@H](CO)NC(=O)[C@H](CO)NC(=O)[C@H](CC(C)C)NC(=O)[C@H](CCCCN)NC(=O)[C@H](CCCNC(=N)N)NC(=O)[C@H](CCCNC(=N)N)NC(=O)[C@H](CCCNC(=N)N)NC(=O)[C@H](CCC(N)=O)NC(=O)[C@H](CCCNC(=N)N)NC(=O)[C@H](CCCNC(=N)N)NC(=O)[C@H](CCCCN)NC(=O)[C@H](CCCCN)NC(=O)[C@H](CCCNC(=N)N)NC(=O)CNC(=O)[C@@H](N)Cc1ccc(O)cc1)C(=O)N[C@@H](CCC(=O)O)C(=O)N[C@@H](CO)C(=O)N[C@@H](CC(=O)O)C(=O)N[C@H](C(=O)O)C(C)C [NERINETIDE]
Activity (Neuron [21]): Active | Survival (Mus musculus [22]): 50% | Activity (Neuron [23]): 13.12% | Survival (Mus musculus [11]): 85%

The next lines start with results.

remaining at 5 h, 100 µM [1]: 9% | Stability [2]: Unstable | half-life at 100 µM [3]: ~45 min
SMILES: CC[C@H](C)[C@H](NC(=O)[C@H](CO)NC(=O)[C@H](CO)NC(=O)[C@H](CC(C)C)NC(=O)[C@H](CCCCN)NC(=O)[C@H](CCCNC(=N)N)NC(=O)[C@H](CCCNC(=N)N)NC(=O)[C@H](CCCNC(=N)N)NC(=O)[C@H](CCC(N)=O)NC(=O)[C@H](CCCNC(=N)N)NC(=O)[C@H](CCCNC(=N)N)NC(=O)[C@H](CCCCN)NC(=O)[C@H](CCCCN)NC(=O)[C@H](CCCNC(=N)N)NC(=O)CNC(=O)[C@H](Cc1ccc(O)cc1)NC(=O)c1ccc(C(=O)[O-])cc1-c1c2ccc(=[N+](C)C)cc-2oc2cc(N(C)C)ccc12)C(=O)N[C@@H](CCC(=O)O)C(=O)N[C@@H](CO)C(=O)N[C@@H](CC(=O)O)C(=O)N[C@H](C(=O)O)C(C)C

Stability [4]: Unstable | remaining at 5 h, 100 µM [5]: 82% | remaining at 5 h, 100 µM [6]: 85% | remaining at 24 h, 100 µM [7]: 80% | remaining at 24 h, 100 µM [8]: 80%
SMILES: CC[C@@H](C)[C@@H](NC(=O)[C@@H](CO)NC(=O)[C@@H](CO)NC(=O)[C@@H](CC(C)C)NC(=O)[C@@H](CCCCN)NC(=O)[C@@H](CCCNC(=N)N)NC(=O)[C@@H](CCCNC(=N)N)NC(=O)[C@@H](CCCNC(=N)N)NC(=O)[C@@H](CCC(N)=O)NC(=O)[C@@H](CCCNC(=N)N)NC(=O)[C@@H](CCCNC(=N)N)NC(=O)[C@@H](CCCCN)NC(=O)[C@@H](CCCCN)NC(=O)[C@@H](CCCNC(=N)N)NC(=O)CNC(=O)[C@@H](Cc1ccc(O)cc1)NC(=O)c1ccc(C(=O)[O-])cc1-c1c2ccc(=[N+](C)C)cc-2oc2cc(N(C)C)ccc12)C(=O)N[C@H](CCC(=O)O)C(=O)N[C@H](CO)C(=O)N[C@H](CC(=O)O)C(=O)N[C@@H](C(=O)O)C(C)C

Drug uptake [12]: Active | Drug uptake [13]: 70.6% | Drug uptake [14]: Not_active
SMILES: CC[C@H](C)[C@@H]1NC(=O)[C@@H]2CSSC[C@@H]3NC(=O)[C@H](C(C)C)NC(=O)[C@H](CC(=O)O)NC(=O)[C@H](CO)NC(=O)[C@H](CCC(=O)O)NC(=O)[C@H]([C@@H](C)CC)NC(=O)[C@H](CO)NC(=O)[C@H](CO)NC(=O)[C@H](CC(C)C)NC(=O)[C@H](CCCCN)NC(=O)[C@@H]4CSSC[C@H](NC(=O)[C@H](CC(=O)O)NC(=O)[C@H](CO)NC(=O)[C@H](CC(=O)O)NC(=O)[C@H](CCCNC(=N)N)NC(=O)[C@H](CCCNC(=N)N)NC(=O)[C@H](CSSC[C@H](NC1=O)C(=O)N[C@@H](CCCNC(=N)N)C(=O)NCC(=O)N[C@@H](CC(N)=O)C(=O)NCC(=O)N[C@@H](Cc1ccc(O)cc1)C(=O)N4)NC(=O)[C@H](CCCCN)NC(=O)[C@H](CCCCN)NC(=O)[C@H](CC(C)C)NC(=O)[C@H]([C@@H](C)CC)NC(=O)[C@H](CCCCN)NC(=O)[C@@H]1CCCN1C3=O)C(=O)N1CCC[C@H]1C(=O)NCC(=O)N[C@@H](C)C(=O)N2 (cyclo(ACICRGNGYCKLSSIESDVCPKILKKCRRDSDCPG); disulfide 2-20, 4-27, 10-33) [listing 1 of 2 here]
Activity (Neuron [9]): Non-toxic

pKd (Disks large homolog 4): 5.92
SMILES: CC[C@H](C)[C@H](NC(=O)[C@H](CO)NC(=O)[C@H](CO)NC(=O)[C@H](CC(C)C)NC(=O)[C@H](CCCCN)NC(=O)[C@H](CCCN=C(N)N)NC(=O)[C@H](CCCN=C(N)N)NC(=O)[C@H](CCCN=C(N)N)NC(=O)[C@H](CCC(N)=O)NC(=O)[C@H](CCCN=C(N)N)NC(=O)[C@H](CCCN=C(N)N)NC(=O)[C@H](CCCCN)NC(=O)[C@H](CCCCN)NC(=O)[C@H](CCCN=C(N)N)NC(=O)CNC(=O)[C@@H](N)Cc1ccc(O)cc1)C(=O)N[C@@H](CCC(=O)O)C(=O)N[C@@H](CO)C(=O)N[C@@H](CC(=O)O)C(=O)N[C@H](C(=O)O)C(C)C [NERINETIDE]
Activity [17]: Non-toxic | Activity (Neuron [9]): Non-toxic | Activity [18]: Non-toxic | Activity [19]: Non-toxic | Activity [20]: Non-toxic
